From patent publication US10377770B2 (Novartis AG, priority 2015, dated 2019)

These compounds were tested against C-Raf FL (full length CRAF with Y340E and Y341E activating mutations, co-expressed with h14-3-3 zeta) (Homo sapiens (Human), UniProt P04049, Y340E/Y341E) (assay: In vitro Raf activity determination, AlphaScreen p-MEK readout, c-Raf (C-Raf FL)). Settings: c-Raf approximately 4 nM, ATP 1 μM, pre-incubation 60 minutes, reaction 1 hour.
Type: biochemical
Method in brief: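 Phosphorylation of kinase-dead biotinylated MEK1 (~10 nM) by C-Raf FL (~4 nM) read by AlphaScreen luminescence with anti-phospho-MEK1/2 after EDTA stop. ATP was 1 μM, with a 1 h reaction at room temperature. Compounds were pre-incubated with enzyme and substrate for 60 min in Tris/MgCl2 buffer, pH 7.5.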

Sequence of C-Raf FL (full length CRAF with Y340E and Y341E activating mutations, co-expressed with h14-3-3 zeta) (P04049 whole entry Y340E/Y341E): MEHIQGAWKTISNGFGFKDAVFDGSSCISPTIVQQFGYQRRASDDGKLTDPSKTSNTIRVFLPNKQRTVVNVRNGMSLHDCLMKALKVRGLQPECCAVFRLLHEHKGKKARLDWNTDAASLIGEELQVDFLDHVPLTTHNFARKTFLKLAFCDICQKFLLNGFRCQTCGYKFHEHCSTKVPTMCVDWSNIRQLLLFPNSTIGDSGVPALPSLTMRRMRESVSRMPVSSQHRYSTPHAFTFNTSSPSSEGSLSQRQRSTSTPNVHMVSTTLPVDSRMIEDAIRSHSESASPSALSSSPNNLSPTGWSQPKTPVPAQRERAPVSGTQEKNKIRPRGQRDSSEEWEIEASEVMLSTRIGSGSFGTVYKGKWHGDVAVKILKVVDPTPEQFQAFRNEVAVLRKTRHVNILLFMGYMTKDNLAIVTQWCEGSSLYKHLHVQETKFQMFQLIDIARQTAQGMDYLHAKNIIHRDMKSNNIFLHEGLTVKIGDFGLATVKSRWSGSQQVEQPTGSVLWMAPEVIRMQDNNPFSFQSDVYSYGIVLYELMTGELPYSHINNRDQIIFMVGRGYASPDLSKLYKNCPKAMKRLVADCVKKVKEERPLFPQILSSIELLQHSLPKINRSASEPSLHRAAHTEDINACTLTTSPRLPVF
Sequence of C-Raf FL (full length CRAF with Y340E and Y341E activating mutations, co-expressed with h14-3-3 zeta) (P63104 whole entry partner): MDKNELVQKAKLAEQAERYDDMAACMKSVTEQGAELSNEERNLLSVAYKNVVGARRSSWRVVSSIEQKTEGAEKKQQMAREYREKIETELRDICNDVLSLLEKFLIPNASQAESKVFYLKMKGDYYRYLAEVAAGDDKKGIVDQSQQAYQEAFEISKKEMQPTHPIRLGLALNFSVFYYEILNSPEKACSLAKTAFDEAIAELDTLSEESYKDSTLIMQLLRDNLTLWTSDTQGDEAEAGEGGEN

| Structure (SMILES) | IC50 |
| --- | --- |
| Cc1ccc(NC(=O)c2ccnc(C(C)(F)F)c2)cc1-c1cnc2c(c1)N1CCOC[C@@H]1[C@@H](CO)C2 [Example 118, 2-(1,1-difluoroethyl)-N-(3-((4aS,5S)-5-(hydroxymethyl)-1,2,4,4a,5,6-hexahydro-[1,4]oxazino[4,3-a][1,5]naphthyridin-9-yl)-4-methylphenyl)isonicotinamide] | 0.0046 nM |
| Cc1ccc(NC(=O)c2ccnc(C(F)(F)F)c2)cc1-c1cnc2c(c1)N1CCOC[C@H]1C[C@]2(C)O (racemic) [Example 40, (rac)-(cis)-N-(3-(6-hydroxy-6-methyl-1,2,4,4a,5,6-hexahydro-[1,4]oxazino[4,3-a][1,5]naphthyridin-9-yl)-4-methylphenyl)-2-(trifluoromethyl)isonicotinamide] | 0.066 nM |
| Cc1ncc(NC(=O)c2cccc(C(F)(F)F)c2)cc1-c1ccc2c(c1)N1CCOC[C@H]1[C@](F)(CO)C2 [Example 383, N-(5-((4aS,5S)-5-fluoro-5-(hydroxymethyl)-1,2,4,4a,5,6-hexahydro-[1,4]oxazino[4,3-a]quinolin-9-yl)-6-methylpyridin-3-yl)-3(trifluoromethyl)benzamide] | 1 nM |
| CCN1C(=O)CC2COCCN2c2cc(-c3cc(NC(=O)c4cccc(C(F)(F)F)c4)cnc3C)cnc21 (racemic) [Example 131, rac-N-(5-(7-Ethyl-6-oxo-1,2,4a,5,6,7-hexahydro-4H-[1,4]oxazino[4,3-d]pyrido[2,3-b][1,4]diazepin-10-yl)-6-methylpyridin-3-yl)-3-(trifluoromethyl)benzamide] | 0.06 nM |
| Cc1ncc(NC(=O)c2cccc(C(F)(F)F)c2)cc1-c1cnc2c(c1)N1CCOC[C@H]1C[C@H]2O [Example 105, N-(5-((4aR,6R)-6-Hydroxy-1,2,4,4a,5,6-hexahydro-[1,4]oxazino[4,3-a][1,5]naphthyridin-9-yl)-6-methylpyridin-3-yl)-3-(trifluoromethyl)benzamide] | 0.045 nM |
| CO[C@@H]1C[C@@H]2COCCN2c2cc(-c3cc(NC(=O)c4ccnc(C(C)(F)F)c4)cnc3C)ccc21 (racemic) [Example 31, (rac)-(trans)-2-(1,1-difluoroethyl)-N-(5-(6-methoxy-1,2,4,4a,5,6-hexahydro-[1,4]oxazino[4,3-a]quinolin-9-yl)-6-methylpyridin-3-yl)isonicotinamide] | 0.033 nM |
| Cc1ncc(NC(=O)c2cccc(C(F)(F)F)c2)cc1-c1cnc2c(c1)N1CCOC[C@H]1C[C@H]2OCCO [Example 514, N-(5-((4aR,6R)-6-(2-hydroxyethoxy)-1,2,4,4a,5,6-hexahydro-[1,4]oxazino[4,3-a][1,5]naphthyridin-9-yl)-6-methylpyridin-3-yl)-3-(trifluorometh-yl)benzamide] | 0.4 nM |
| CCN1C(=O)CC2CCOCCN2c2cc(-c3cc(NC(=O)c4ccnc(C(F)(F)F)c4)ccc3C)cnc21 (centres unmarked) [Example 316, N-(3-(8-ethyl-7-oxo-1,2,4,5,5a,6,7,8-octahydropyrido[3′, 2′:2,3][1,4]diazepino [1,7-d][1,4]oxazepin-11-yl)-4-methylphenyl)-2-(trifluoromethyl) isonicotinamide] | 0.8 nM |
| Cc1ccc(NC(=O)c2ccnc(C(C)(F)F)c2)cc1-c1ccc2c(c1)N1CCOC[C@H]1C[C@@]2(C)O [Example 24, 2-(1,1-difluoroethyl)-N-(3-((4aR,6R)-6-hydroxy-6-methyl-1,2,4,4a,5,6-hexahydro-[1,4]oxazino[4,3-a]quinolin-9-yl)-4-methylphenyl)isonicotinamide] | 0.049 nM |
| Cc1ccc(NC(=O)c2ccnc(C(C)(C)C#N)c2)cc1-c1ccc2c(c1)N1CCOCC1CC2O (racemic) [Example 8, (rac)-2-(2-cyanopropan-2-yl)-N-(3-(6-hydroxy-1,2,4,4a,5,6-hexahydro-[1,4]oxazino[4,3-a]quinolin-9-yl)-4-methylphenyl)isonicotinamide] | 0.19 nM |
| Cc1ccc(NC(=O)c2ccnc(C(F)(F)F)c2)cc1-c1cnc2c(c1)N1CCOC[C@H]1C[C@H]2O [Example 102, N-(3-((4aR,6R)-6-Hydroxy-1,2,4,4a,5,6-hexahydro-[1,4]oxazino[4,3-a][1,5]naphthyridin-9-yl)-4-methylphenyl)-2-(trifluoromethyl)isonicotinamide] | < 0.0017 nM |
| Cc1ncc(NC(=O)c2cccc(C(F)(F)F)c2)cc1-c1cnc2c(c1)N1CCOC[C@@H]1[C@H](C(C)(C)O)C2 [Example 449, N-(5-((4aS,5R)-5-(2-hydroxypropan-2-yl)-1,2,4,4a,5,6-hexahydro-[1,4]oxazino[4,3-a] [1,5]naphthyridin-9-yl)-6-methylpyridin-3-yl)-3-(trifluoro-methyl)benzamide] | 0.7 nM |
| Cc1ncc(NC(=O)c2ccnc(C(C)(F)F)c2)cc1-c1ccc2c(c1)N1CCOC[C@H]1[C@](F)(CO)C2 [Example 84, 2-(1,1-difluoroethyl)-N-(5-((4aS,5S)-5-fluoro-5-(hydroxymethyl)-1,2,4,4a,5,6-hexahydro-[1,4]oxazino[4,3-a]quinolin-9-yl)-6-methylpyridin-3-yl)isonicotinamide] | 1 nM |
| Cc1ccc(NC(=O)c2ccnc(C(C)(F)F)c2)cc1-c1cc(F)c2c(c1)N1CCOC[C@H]1[C@@](F)(CO)C2 [Example 430, N-(3-((4aS,5R)-5,7-difluoro-5-(hydroxymethyl)-1,2,4,4a,5,6-hexahydro-[1,4]oxazino[4,3-a]quinolin-9-yl)-4-methylphenyl)-2-(1,1-difluoroethyl)isonicotinamide] | 0.6 nM |
| Cc1ncc(NC(=O)c2cccc(C(F)(F)F)c2)cc1-c1ccc2c(c1)N1CCOC[C@H]1[C@@](F)(CO)C2 [Example 394, N-(5-((4aS,5R)-5-fluoro-5-(hydroxymethyl)-1,2,4,4a,5,6-hexahydro-[1,4]oxazino[4,3-a]quinolin-9-yl)-6-methylpyridin-3-yl)-3-(trifluoromethyl)benzamide] | 0.3 nM |
| Cc1ccc(NC(=O)c2ccnc(C(F)(F)F)c2)cc1-c1ccc2c(c1)N1CCOC[C@H]1[C@@](F)(CO)C2 [Example 396, N-(3-((4aS,5R)-5-fluoro-5-(hydroxymethyl)-1,2,4,4a,5,6-hexahydro-[1,4]oxazino[4,3-a]quinolin-9-yl)-4-methylphenyl)-2-(trifluoromethyl)isonicotinamide] | 0.2 nM |
| Cc1ccc(NC(=O)c2ccnc(C(C)(F)F)c2)cc1-c1cc2n(c(=O)c1)CC[C@H]1COCCN21 [Example 411, (S)-2-(1,1-difluoroethyl)-N-(4-methyl-3-(8-oxo-1,2,4,4a,5,6-hexahydro-8H-pyrido[2′,1′:2,3]pyrimido[6,1-c][1,4]oxazin-10-yl)phenyl)isonicotinamide] | 0.2 nM |
| CCNC(=O)C1Cc2ccc(-c3cc(NC(=O)c4ccnc(C(C)(F)F)c4)ccc3C)cc2N2CCOCC12 (racemic) [Example 74, (rac)-9-(5-(2-(1,1-difluoroethyl)isonicotinamido)-2-methylphenyl)-N-ethyl-1,2,4,4a,5,6-hexahydro-[1,4]oxazino[4,3-a]quinoline-5-carboxamide] | 0.28 nM |
| CCN1C(=O)C2(F)COCC[C@@H]2c2cc(-c3cc(NC(=O)c4cccc(C(F)(F)F)c4)cnc3C)cnc21 (stereo partly drawn) [Example 340, N-(5-((10bR)-6-ethyl-4a-fluoro-5-oxo-2,4,4a,5,6,10b-hexahydro-1H-pyrano[3,4-c][1,8]naphthyridin-9-yl)-6-methylpyridin-3-yl)-3-(trifluoromethyl) benzamide] | 1.3 nM |
| Cc1ccc(NC(=O)c2ccnc(C(C)(F)F)c2)cc1-c1ccc2c(c1)N1CCOC[C@H]1[C@@](C)(C#N)C2 (racemic) [Example 88, (rac)-N-(3-(5-cyano-5-methyl-1,2,4,4a,5,6-hexahydro-[1,4]oxazino[4,3-a]quinolin-9-yl)-4-methylphenyl)-2-(1,1-difluoroethyl)isonictinamide] | 0.032 nM |
| CCN1C[C@@H]2CCOCCN2c2cc(-c3cc(NC(=O)c4ccnc(C(F)(F)F)c4)ccc3C)cnc2C1=O [Example 504, (S)-N-(3-(7-ethyl-8-oxo-1,2,4,5,5a,6,7,8-octahydropyrido[2′, 3′:6,7][1,4]diazepino [1,2-d][1,4]oxazepin-11-yl)-4-methylphenyl)-2-(trifluoromethyl)iso-nicotinamide] | 15.4 nM |
| Cc1ncc(NC(=O)c2cccc(C(F)(F)F)c2)cc1-c1cnc2c(c1)N1CCOC[C@@H]1[C@H](CO)C2 (racemic) [Example 119, rac-trans-N-(5-(5-(Hydroxymethyl)-1,2,4,4a,5,6-hexahydro-[1,4]oxazino[4,3-a][1,5]naphthyridin-9-yl)-6-methylpyridin-3-yl)-3-(trifluoromethyl)benzamide] | 0.01 nM |
| CCN1C(=O)C(C)(C)c2nncn2-c2cc(-c3cc(NC(=O)c4cccc(C(F)(F)F)c4)cnc3C)cnc21 [Example 240, N-(5-(6-ethyl-4,4-dimethyl-5-oxo-5,6-dihydro-4H-pyrido[2,3-b][1,2,4]triazolo[4,3-d][1,4]diazepin-9-yl)-6-methylpyridin-3-yl)-3-(trifluoromethyl) benzamide] | 10.6 nM |
| Cc1ccc(NC(=O)c2cnnc(C(F)(F)F)c2)cc1-c1ccc2c(c1)N1CCOCC1CC2O (racemic) [Example 10, (rac)-N-(3-(6-hydroxy-1,2,4,4a,5,6-hexahydro-[1,4]oxazino[4,3-a]quinolin-9-yl)-4-methylphenyl)-6-(trifluoromethyl)pyridazine-4-carboxamide] | 0.036 nM |
| Cc1ccc(NC(=O)c2cnnc(C(F)(F)F)c2)cc1-c1ccc2c(c1)N1CCOC[C@H]1[C@](F)(CO)C2 [Example 384, N-(3-((4aS,5S)-5-fluoro-5-(hydroxymethyl)-1,2,4,4a,5,6-hexahydro-[1,4]oxazino[4,3-a]quinolin-9-yl)-4-methylphenyl)-6-(trifluoromethyl)pyridazine-4-carboxamide] | 0.2 nM |
| Cc1ccc(NC(=O)c2ccnc(C(F)(F)F)c2)cc1-c1cnc2c(c1)N1CCOC[C@@H]1[C@@H](C(C)(C)O)C2 [Example 454] | 0.8 nM |
